Measurements published in patent US20130129675A1, “INTERFERON THERAPIES IN COMBINATION WITH BLOCKADE OF STAT3 ACTIVATION” (BOARD OF REGENTS, THE UNIVERSITY OF TEXAS SYSTEM, priority 2009, published 2013).
Read-outs that look alike come from different tables or passages of the source.

What was measured:
[1] = tested on: STAT3 in HaCaT keratinocytes; test: pSTAT3 level in HaCaT keratinocytes (MSD chemiluminescent detection); assay type: cell-based, human; details: for Relative level of pSAT3: HaCaT cells, stimuli for 30 minutes
Description: Prior to experiments, the DMEM medium was changed to KGM-SFM containing rEGF and bovine pituitary extract for 12 hours, and the cells then exposed to various stimuli for 30 minutes. Cell lysates were extracted in IP lysis buffer were diluted in MSD extraction buffer and 25 uL of the cell lysate containing 10 ug protein was used in the analysis via chemiluminescent detection (MSD Technology). To test for inhibition by WP1220 (WP), cells were pre-incubated with WP1220 prior to the addition of IFN α.

STAT3 = STAT3 (Homo sapiens, UniProt P40763); details: in vitro; cited from earlier work
Chain of STAT3 (P40763 whole entry, species assumed): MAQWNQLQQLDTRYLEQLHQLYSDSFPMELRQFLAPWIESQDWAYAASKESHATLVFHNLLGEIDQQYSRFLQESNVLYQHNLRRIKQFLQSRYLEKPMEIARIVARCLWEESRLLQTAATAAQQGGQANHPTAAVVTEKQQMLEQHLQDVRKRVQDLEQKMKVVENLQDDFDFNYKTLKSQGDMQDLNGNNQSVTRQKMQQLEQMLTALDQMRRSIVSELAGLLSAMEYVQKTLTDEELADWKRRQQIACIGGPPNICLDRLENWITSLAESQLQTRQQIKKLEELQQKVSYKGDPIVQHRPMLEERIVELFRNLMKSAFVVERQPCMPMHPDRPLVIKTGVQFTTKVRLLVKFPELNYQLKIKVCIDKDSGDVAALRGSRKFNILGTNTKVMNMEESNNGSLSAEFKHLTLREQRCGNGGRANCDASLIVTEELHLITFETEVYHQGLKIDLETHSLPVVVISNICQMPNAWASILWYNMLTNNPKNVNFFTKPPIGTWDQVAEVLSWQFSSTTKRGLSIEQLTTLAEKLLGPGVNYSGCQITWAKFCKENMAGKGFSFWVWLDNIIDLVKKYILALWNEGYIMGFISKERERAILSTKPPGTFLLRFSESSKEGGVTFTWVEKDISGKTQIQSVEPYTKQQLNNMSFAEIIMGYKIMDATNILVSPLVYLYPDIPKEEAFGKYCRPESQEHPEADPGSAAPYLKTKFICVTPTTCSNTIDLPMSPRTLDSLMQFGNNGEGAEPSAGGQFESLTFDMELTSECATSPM

[2] = tested on: human melanoma xenografts and syngeneic murine melanoma; test: WP1066 in melanoma xenografts and syngeneic melanoma; assay type: in vivo; details: oral gavage
Description: (§1) Iwamaru A, Szymanski S, Iwado E, et al., A Novel Inhibitor Of The STAT3 Pathway Induces Apoptosis In Malignant Glioma Cells Both In Vitro And In Vivo. Oncogene 2006; 26: 2435-2444. […] To determine whether treatment with WP1066 is efficacious against established syngeneic intracerebral tumors, C57BL/6J mice with melanoma tumors (B16) were treated by oral gavage with WP1066 starting on day 3 after tumor implantation. […] Kong L Y, Abou-Ghazal M K, Wei J, et al., A Novel Inhibitor Of STAT3 Activation Is Efficacious Against Established Central Nervous System Melanoma And Inhibits Regulatory T Cells, Clin Cancer Res (Submitted).

[3] = tested on: CD4+CD25−CD62Lhi naïve T cells; test: FoxP3 induction during inducible Treg (iTreg) differentiation; assay type: cell-based, C57BL/6J mice; details: 0, 0.1 and 1.0 μM, 96 hours, flow cytometry (FIG. 2)
Description: (§2) The blockade of activation of STAT3 and its subsequent nuclear translocation inhibits both tumorigenesis and tumor-mediated immunosuppression. […] CD4^+CD25^−CD62L^hi naïve T cells from C57BL/6J mice were stimulated by plate-bound anti-CD3 (2 μg/ml) and soluble anti-CD28 (2 μg/ml) in the presence of TGF-β1 (1 ng/ml) and hIL-2 (200 U/ml), with 0, 0.1, and 1.0 μM WP1066 for inducible Tregs (iTreg) differentiation. CD4^+CD25^+ T cells (natural Tregs, nTreg) were stimulated by plate-bound anti-CD3 (2 μg/ml) and soluble anti-CD28 (2 μg/ml) in the presence of hIL-2 (200 U/ml), with 0, 0.1, and 1.0 μM WP1066. Ninety-six hours after stimulation, the cells were analyzed for intracellular FoxP3 expression by flow cytometry. The percentage of FoxP3 expressing T cells is shown.
(§3) In additional experiments, CD4^+CD25^−CD62L^hi naïve T cells from C57BL/6J mice were stimulated by plate-bound anti-CD3 (2 μg/ml) and soluble anti-CD28 (2 μg/ml) in the presence of TGF-β1 (1 ng/ml) and hIL-2 (200 U/ml), with 0, 0.1, and 1.0 μM WP1066 for inducible Tregs (iTreg) differentiation. CD4^+CD25^+ T cells (natural Tregs, nTreg) were stimulated by plate-bound anti-CD3 (2 μg/ml) and soluble anti-CD28 (2 μg/ml) in the presence of hIL-2 (200 U/ml), with 0, 0.1, and 1.0 μM WP1066. Ninety-six hours after stimulation, the cells were analyzed for intracellular FoxP3 expression by flow cytometry.

[4] = tested on: head and neck carcinoma (MDA1986), pancreatic cancer (MiaPaca2), bladder cancer, glioma (U-87), lymphoma, myeloma, leukemia; details: 40 mg/kg intraperitoneally every other day for 28 days; cited from earlier work
[5] = tested on: microglia, systemic APCs and T cells from patients with cancer; test: WP1066 on immune cells obtained from patients with cancer; assay type: cell-based
Text: We recently have shown that blocking STAT3 activity by treatment with WP1066 in microglia obtained from the CNS of patients with cancer upregulates co-stimulatory molecules (e.g., CD80, CD86). The expression of co-stimulatory molecules is necessary for T-cell proliferation, and if a T cell encounters APCs, such as microglia/microphages, without co-stimulatory molecules present, the T cells will be rendered anergic. […] Of note, this potent immune activation occurred in immune cells obtained from patients with disease refractory to other conventional immune activators, such as toll-like receptor agonists.

[6] = parameters: species or system CD1 mice; details: in vivo; for mean peak plasma concentration: CD1, mouse, iv
Description: Of central importance to the treatment of CNS gliomas and metastasis is the use of agents with sufficient CNS permeability and subsequent cytotoxic activity, of which there is direct evidence for WP1066 and indirect evidence for JSI-124. To determine the physiological doses of WP1066 that can be achieved in vivo, CD1 mice were given WP1066 as an intravenous bolus (10 or 40 mg/kg) or by oral gavage (40 mg/kg) and killed at various time points up to 24 hours after treatment. […] When WP1066 was delivered intraperitoneally at a dose of 100 mg/kg or intravenously at a dose of 10 mg/kg every other day for up to 2 weeks, plasma concentrations exceeded 1 μM, and CNS concentrations (with an intact blood-brain barrier) exceeded 62 μg/g of tissue (0.185 μM); concentrations in U87-MG malignant glioma-bearing animals exceeded 362 μg/g (1.08 μM). […] Fujita M, Zhu X, Sasaki K, et al., Inhibition Of STAT3 Promotes The Efficacy Of Adoptive Transfer Therapy Using Type-1 CTLs By Modulation Of The Immunological Microenvironment In A Murine Intracranial Glioma, J Immunol 2008; 180:2089-2098.

[7] = Toxicology of p-STAT3 inhibitors in mice (histology of systemic organs, Luxol fast blue staining of CNS axis); assay type: in vivo, C57BL/6J mice; details: for histological examination of the systemic organs: treated mice
Text: The toxicological properties of the small molecule inhibitors of p-STAT3 appear favorable. […] Because p-STAT3 blockade agents are potent immune activators, nonspecific immune reactivity in the CNS remains a consideration. […] Fujita M, Zhu X, Sasaki K, et al., Inhibition Of STAT3 Promotes The Efficacy Of Adoptive Transfer Therapy Using Type-1 CTLs By Modulation Of The Immunological Microenvironment In A Murine Intracranial Glioma, J Immunol 2008; 180:2089-2098. This lack of induced autoimmunity may be due to STAT3's role as the key regulator of the generation of Th17 cells, which are primary immune cell mediators of autoimmunity. Thus, the inhibitors of p-STAT3 may also be inhibiting the mediators of CNS autoimmunity-Th 17 responses.

melanoma tumors (B16) = test: WP1066 against established syngeneic intracerebral tumors; assay type: in vivo, C57BL/6J mice
Description: as §1
Fujita M, Zhu X, Sasaki K, et al., Inhibition Of STAT3 Promotes The Efficacy Of Adoptive Transfer Therapy Using Type-1 CTLs By Modulation Of The Immunological Microenvironment In A Murine Intracranial Glioma, J Immunol 2008; 180:2089-2098. […] Furthermore, when JSI-124 was combined with adoptive transfer of type I cytotoxic T lymphocytes, survival was further enhanced compared with treatment with either modality alone. The authors concluded that the inhibition of STAT3 could reverse the immune-suppressive immune microenvironment and promote the efficacy of adoptive transfer therapy. Id.

[8] = tested on: malignant glioma xenografts (U-87 and U-373); details: cited from earlier work
[9] = tested on: CD4+CD25+ T cells (natural Tregs); test: FoxP3 expression in natural Tregs (nTreg); assay type: cell-based, C57BL/6J mice; details: 0, 0.1 and 1.0 μM, 96 hours, flow cytometry (FIG. 2)
Description: as §2, §3

[10] = tested on: human breast carcinoma and syngeneic murine melanoma; details: not in carcinomas that lack constitutive expression of p-STAT3; cited from earlier work
[11] = tested on: lymphoma and cervical cancer; details: cited from earlier work
[12] = animals treated with JSI-124 (Fujita et al.); cited from earlier work
intracerebral tumors = details: mouse, in vivo; cited from earlier work
[13] = tested on: breast carcinoma cell lines with constitutively active STAT3; details: cited from earlier work
[14] = tested on: human breast tumor xenografts; details: cited from earlier work
[15] = tested on: human lung cancer xenografts; details: cited from earlier work

## IL-6: cytokine, stimulus in HaCaT pSTAT3 test
[1]
  STAT3 activation in keratinocytes: potently induce STAT3 activation
  Relative level of pSAT3: +++++ (+++++=400-500 fold)

## EGF: growth factor, stimulus in HaCaT pSTAT3 test (NSDSECPLSHDGYCLHDGVCMYIEALDKYACNCVVGYIGERCQYRDLKWWELR; Epidermal growth factor; UniProt P01133 971-1023, looked up)
[1]
  Relative level of pSAT3: + (+=less than 200 fold)

## N#C/C(=C\c1ccc(O)c(O)c1)C(=O)NCc1ccccc1 [AG490, (E)-N-benzyl-2-cyano-3-(3,4-dihydroxyphenyl)acrylamide]
STAT3
  IC50: > 50 µM

## C[C@H](NC(=O)/C(C#N)=C/c1cccc(Br)n1)c1ccccc1 [WP1066, (S,E)-3-(6-bromopyridin-2-yl)-2-cyano-N-(1-phenylethyl)acrylamide]
[2]
  tumor growth: marked growth suppression
[3]
  FoxP3 induction in T cells: inhibiting FoxP3 induction
[4]
  tumor growth: statistically significant suppression of tumor growth
[5]
  immune-suppressive cytokines such as TGF-β: inhibits
[5]; immune-suppressed patients
  production of pro-inflammatory cytokines (IL-2, IL-4, IL-12, IL-15) by systemic APCs: induces
[5]; microglia from the CNS of patients with cancer
  co-stimulatory molecules (CD80, CD86) on microglia: upregulates
[6]; 10 mg/kg
  mean peak plasma concentration: 1.05 µM
[6]; 40 mg/kg
  mean peak plasma concentration: 4.31 µM
[6]; mouse, po, 40 mg/kg
  mean peak plasma concentration (oral bioavailability studies): greater than 2 μM
[7]; C57BL/6J mice
  induction of autoimmunity in CNS (Luxol fast blue staining): no evidence of induction of autoimmunity
[7]; mouse, in vivo
  local tolerability: localized inflammatory responses
[7]
  histological examination of the systemic organs: failed to reveal any major toxicities
Melanoma tumors (B16); established intracerebral tumors, immune-incompetent background
  in vivo efficacy in immune-incompetent background: ablated
Melanoma tumors (B16); oral gavage starting on day 3 after tumor implantation, vehicle control 0%
  animals surviving long-term: 80%
[8]; immunohistochemical analysis
  duration of p-STAT3 inhibition in excised tumors after the final injection: at least 3 weeks
[8]; systemic intraperitoneal administration, 30-day follow-up
  tumor growth: significant inhibition of tumor growth
[9]
  FoxP3 in natural Tregs: down-regulates FoxP3

## bFGF: basic fibroblast growth factor, stimulus in HaCaT pSTAT3 test
[1]
  Relative level of pSAT3: + (+=less than 200 fold)

## CC(C)(O)/C=C/C(=O)[C@](C)(O)[C@H]1[C@H](O)C[C@@]2(C)[C@@H]3CC=C4[C@@H](C=C(O)C(=O)C4(C)C)[C@]3(C)C(=O)C[C@]12C [JSI-124, cucurbitacin I]
[10]
  in vivo tumor growth: inhibit the in vivo growth of human breast carcinoma and syngeneic murine melanoma
[11]
  in vitro activity: in vitro activity against lymphoma and cervical cancer
[12]
  induced autoimmunity: no evidence of induced autoimmunity
Intracerebral tumors
  survival: prolonged survival
[7]
  histological examination of the systemic organs: failed to reveal any major toxicities

## Cc1ccc(S(=O)(=O)OCC(=O)Nc2ccc(C(=O)O)c(O)c2)cc1 [Example S31-301]
[13]
  growth and apoptosis: inhibit growth and induce apoptosis preferentially
[14]
  in vivo tumor growth: suppress the in vivo growth of human breast tumor xenografts

## Cucurbitacin Q
[15]
  in vivo tumor growth: suppressed in vivo growth of human lung cancer xenografts
